Data taken from paper PMC8856561, “Pharmacological and genetic activation of cAMP synthesis disrupts cholesterol utilization in Mycobacterium tuberculosis” (PLoS Pathogens, 2022).

Legend:
[1] = molecular target: Rv1625c (Mycobacterium tuberculosis, UniProt P9WQ35); assay: cAMP production in cya- E. coli expressing Rv1625c; format: cell-based; conditions: cya- E. coli with Rv1625c expression plasmid, 18 hours
[2] = system: Mtb; assay: microbe, parasite or virus in culture; format: cell-based, Mycobacterium tuberculosis; conditions: for inhibition of ΔRv1625c mutant: ΔRv1625c strain, cholesterol media

Chain of Rv1625c (P9WQ35 whole entry, looked up): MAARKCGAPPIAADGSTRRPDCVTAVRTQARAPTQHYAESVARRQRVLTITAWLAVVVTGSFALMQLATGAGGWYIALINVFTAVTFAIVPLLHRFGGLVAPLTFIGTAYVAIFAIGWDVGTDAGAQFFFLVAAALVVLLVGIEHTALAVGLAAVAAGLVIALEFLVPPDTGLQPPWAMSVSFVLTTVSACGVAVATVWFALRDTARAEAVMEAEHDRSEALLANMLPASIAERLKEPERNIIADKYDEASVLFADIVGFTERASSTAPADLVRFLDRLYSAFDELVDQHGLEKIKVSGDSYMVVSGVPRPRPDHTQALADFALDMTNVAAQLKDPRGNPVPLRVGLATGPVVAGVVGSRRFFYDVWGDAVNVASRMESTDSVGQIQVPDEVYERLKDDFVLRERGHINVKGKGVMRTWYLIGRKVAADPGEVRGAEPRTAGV

For `Cc1nonc1CC(=O)N1CCC(n2nnc(-c3ccc(F)cc3)n2)CC1` [V-59, 1-(4-(5-(4-fluorophenyl)-2H-tetrazol-2-yl)piperidin-1-yl)-2-(4-methyl-1,2,5-oxadiazol-3-yl)ethan-1-one], the cAMP levels [1] was “increased cAMP levels”, the “susceptibility of 2xrv1625c (rv1625c overexpression) strain relative to WT” value ([2]; 7H12+cholesterol media) was ~ 15 fold and the “inhibition of ΔRv1625c mutant” value [2] was “refractory”.
For `Cn1ncnc1CC(=O)N1CCC(c2nc(-c3ccc(Cl)c(Cl)c3)no2)CC1` [mCLB073, 1-(4-(3-(3,4-dichlorophenyl)-1,2,4-oxadiazol-5-yl)-1-piperidinyl)-2-(2-methyl-2H-1,2,4-triazol-3-yl)-1-ethanone], the “inhibition of ΔRv1625c mutant” value [2] was “refractory”.
